Numbers after ± are expanded uncertainties.
Experiment: refractive index (Na D-line) (dimensionless)
Conditions: 293.15 K, Liquid, Standard Abbe refractometry

SMILES | refractive index (101.23 kPa) | refractive index (100 kPa)
c1ccoc1 [furan] | 1.4218 ± 0.0004 | –
Cc1ccccc1 [toluene] | – | 1.4966 ± 0.0007
